Laboratory results reported in patent US20210254138A1, “SIALIC ACID TRANSPORTER PROTEINS AS BIOMARKERS AND DRUG TARGETS” (Quadram Institute Bioscience, priority 2018, published 2021).

What was measured:
[1] = molecular target: RgSBP (RUMGNA_02698); solute-binding protein of the sialic acid ABC transporter, full-length excluding the signal sequence (residues 1-29), N-terminal His-tag …; assay: Isothermal titration calorimetry (ITC) of 2,7-anhydro-Neu5Ac binding to RgSBP (FIG. 4A); design: species or system Ruminococcus gnavus ATCC 29149; conditions: 50 mM Tris-HCl pH 7.5, cell protein 100 μM, syringe ligand 2 mM, single-binding site model
Excerpt: The Nan cluster in R. gnavus ATCC 29149 is predicted to encode a putative sialic acid transporter of the SAT2 family, with RUMGNA_02698 predicted to be a solute binding protein (SBP) and RUMGNA_02697 and 02696 predicted to be two permeases (Crost et al., 2013; 2016). To determine the ligand specificity of R. gnavus SBP protein (RgSBP), the corresponding gene was amplified by PCR from the R. gnavus ATCC 29149 genome, cloned and heterologously expressed in E. coli and the His6-tag recombinant protein purified by immobilised metal ion affinity chromatography (IMAC).
The affinity of the interaction between RgSBP and sialic acid ligands was further assessed by ITC.
The full-length RgSBP excluding the signal sequence (residues 1-29), the full length RgNanA and full length RUMGNA_02695 were amplified from R. gnavus ATCC 29149 gDNA, and cloned into the pHISTEV expression system, introducing a His-tag at the N terminus using primers listed in Table S1. DNA manipulation was carried out in E. coli DH5α cells. […] Protein purification was assessed by standard SDS-polyacrylamide gel electrophoresis using NuPAGE Novex 4-12% Bis-Tris gels (Life Technologies, Paisley, UK). Protein concentration was measured with NanoDrop 1000 UV-Vis
Spectrophotometer (Thermo Fischer Scientific, Wilmington, Del.) and using the extinction coefficient calculated by Protparam (ExPASy-Artimo, 2012) from the peptide sequence. […]

[2] = test system: CC(=O)N[C@H]1[C@H]([C@H](O)[C@H](O)CO)OC(O)(C(=O)O)C[C@@H]1O; assay: purified protein, by the assay type; conditions: other: substrate of RgNanA; Michaelis-Menten fit; pH 7.0
Method: Aldolase cleavage was measured by monitoring the decrease in absorbance at 340 nm (A340 nm) as NADH is converted to NAD by lactate dehydrogenase in a coupled reaction where pyruvate is released from sialic acid by the aldolase. Reactions were performed in a 100 μl volume with final concentrations of 150 μM NADH (Sigma, St Louis, USA), 0.5 U LDH (Sigma, St Louis, USA), 10 mM sialic acid (Neu5Ac or 2,7-anhydro-Neu5Ac) and 1.5 μg purified RgNanA or EcNanA (E. coli aldolase CAS: 9027-60-5, Carbosynth, UK) in 50 mM Na-phosphate buffer (pH 7.0). The reactions were performed at 37° C. and monitored using FLUOstar OPTIMA (BMG LABTECH). For kinetics experiments, the sialic acid concentration was varied at 20, 10, 5, 4, 2, 1, 0.4, 0.2, 0.1 mM and the initial rate of reaction determined for each concentration in triplicate before analysis was performed by fitting the data to a Michaelis-Menten using Graph Pad Prism (V 5.03).
The substrate specificity of RgNanA was determined using a coupled activity assay where pyruvate released during the conversion of sialic acid to ManNAc is converted to lactate by a lactate dehydrogenase and the subsequent loss of absorbance at 340 nm measured as NADH is converted to NAD^+. A commercially available E. coli sialic acid aldolase (EcNanA) was included as a control and enzymes were tested for activity against 2,7-anhydro-Neu5Ac and Neu5Ac. […] The kinetic parameters of RgNanA were determined by calculating the initial rate of reaction with increasing Neu5Ac concentrations. A Michaelis-Menten curve was fitted to the data and kinetic parameters determined (FIG. 7b).

[3] = test system: R. gnavus ATCC 29149 wild-type; assay: Growth on sole carbon source, wild-type strain; assay type: cell-based; conditions: 11.1 mM in YCFA, anaerobic
Method: R. gnavus ATCC 29149 was routinely grown in an anaerobic cabinet (Don Whitley, Shipley, UK) in BHI-YH as previously described (Crost et al., 2013). Growth on single carbon sources utilized anaerobic basal YCFA medium (Duncan et al., 2002) supplemented with 11.1 mM of specific mono- or oligosaccharides (2,7-anhydro-Neu5Ac, 3'Sialyllactose (3'SL) or glucose). The bacteria were grown to late exponential phase for RNA extraction, the culture was performed in 14 ml tubes. Growth was determined spectrophotometrically by monitoring changes in optical density at […] compared to the same medium without bacterium (ΔOD595 nm) hourly for 10 hours.
(§1) The ability of the mutants to utilise sialic acids and sialoconjugates was assessed by supplementing YCFA with 11.1 mM of 2,7-anhydro-Neu5Ac, 3'SL, glucose or Neu5Ac in triplicate 200 μl cultures in 96-well microtiter plates. The OD595 nm was measured hourly for 10 h in an infinite F50 plate reader (Tecan, UK) housed within an anaerobic cabinet connected to Magellan V7.0 software.

[4] = test system: R. gnavus ATCC 29149 nan deletion mutants; assay: Growth on sole carbon source, nan deletion mutants; assay type: cell-based; conditions: 11.1 mM in YCFA, anaerobic
Excerpt: R. gnavus mutants were generated using the ClosTron methodology (Heap et al., 2010), which inserts an erythromycin resistance cassette into the gene of interest. Target sites were identified using the Pertuka method (Perutka et al., 2004). The re-targeted introns were synthesised and ligated into the pMTL007C-E2 vector by ATUM (MenloPark, USA). The plasmids were then transformed into E. coli CA434 using the heat-shock protocol, and the recombinant clones selected for chloramphenicol resistance. Recombinant E. coli cells were grown overnight in 10 ml LB, 1 ml of the overnight culture was pelleted and washed with PBS. The E. coli cell pellet was resuspended in 200 μl of an R. gnavus overnight culture and the cell suspension spotted onto a non-selective BHI-YH plate. […]
as §1

## CC(=O)NC1C(O)CC2(C(=O)O)OC(C(O)CO)C1O2 (centres unmarked) [2,7-anhydro-Neu5Ac]
[1]
  Kd: 2240 nM

## RgNanA (RUMGNA_02692, sialic acid aldolase) (Mediterraneibacter gnavus ATCC 29149)
[2]
  Km: 1473 ± 98 µM
  kcat: 2.757 ± 0.033 s⁻¹

## CC(=O)N[C@H]1[C@H]([C@H](O)[C@H](O)CO)O[C@@](O[C@H]2[C@@H](O)[C@@H](CO)O[C@@H](O[C@H]3[C@H](O)[C@@H](O)C(O)O[C@@H]3CO)[C@@H]2O)(C(=O)O)C[C@@H]1O (some centres unmarked) [3'SL, 3'-sialyllactose]
[3]
  utilisation as a sole carbon source (growth): able to utilise
[4]
  growth on substrate as sole carbon source: no growth was detected
